Experimental data as given in patent US8895624B2, “Treatment of osteoporosis” (Haoma Medica Ltd., priority 2009, dated 2014).

Key:
[1] = test system: interleukin-6 release from MG63 osteoblast-like cells; assay: Inhibition of E. coli LPS-stimulated interleukin-6 release from cultured MG63 osteoblast-like cells; assay type: cell-based, human; settings: E. coli LPS 25 ng/ml
From the text: 1. There are numerous factors that regulate bone physiology. Targeting the agents that induce bone resorption by recruiting/activating the cells that induce bone loss (the osteoclasts) has had limited exposure/efficacy. Most current therapies target the osteoclasts once they have been recruited or activated. A family of locally (bone) produced proteins called cytokines can induce a range of stimuli that can affect osteoclast number/activity. One of these cytokines is called interleukin-6 (IL-6). IL-6 is released by many cell types, including the bone forming cells (osteoblasts), following challenge from a range of agonists. These agonists can be physiological (1,25(OH)2 vitamin D3, interleukin-1β) or pathophysiological (interleukin-1β; bacterial endotoxin). • In vitro studies focussed on an immortalised osteoblast-like cell line called MG63 that was derived from a human osteosarcoma (bone cancer). These cells were cultured and screened for their ability to synthesize and release a range of cytokines including IL-6. Due to the well described activities of IL-6 induced bone loss this cytokine was focussed upon (see Manolagas S. C., Ann N Y Acad. Sci. 1998 May 1; 840:194-204). […] IL-6 can be measured by commercial immunoassays, for example, the QuantiGlo IL-6 Immunoassay from R&D systems.

[2] = test system: osteoblast-like MG63 cells; assay: Viability of MG63 cells by uptake of 3H labelled Thymine in the formation of DNA; assay type: cell-based, human; settings: concentrations 10^−8M to 10^−5M, compared with control samples
[3] = test system: cultured cell lines derived from skin and liver; assay: Cell toxicity in cultured cell lines derived from skin and liver; assay type: cell-based
[4] = test system: bone loss induced by oviarectomy; assay: Oviarectomized (oestrogen deficient) mouse model of osteoporosis, tibial μCT; assay type: in vivo, C57Black mice; settings: OVx mice, 15 μg/mouse/day intraperitoneally, 5 weeks
From the text: The most widely accepted animal model of osteoporosis is the oestrogen deficient rodent, with this model the effect of the present invention has been tested in vivo. All procedures were done under Home Office licence and full local ethical requirements. C57Black mice were randomly assigned to receive total bi-lateral oviarectomy or sham operation. The oviarectomized animals were randomly assigned for treatment or to an untreated control group. At operation eight animals were in each group. • The mice were housed under standard animal house conditions with 12 hour light dark cycles in temperature and humidity controlled conditions for 5 weeks. The Sham and control oviarectomized mice received 10% ethanol in saline vehicle injections intraperitoneally once per day. The NaQuinate treated mice received a single injection (15 μg/mouse/day) administered in 10% ethanol in saline injections intraperitoneally. All mice received the same volume of test sample and this complied with Home Office regulations. • After 5 weeks treatment the animals were sacrificed by a Schedule 1 method and the tibiae removed for X-ray micro-Computer Tomography (μCT) imaging analyses.

[5] = test system: bone loss in neurectomized limbs; assay: Disuse osteoporosis induced by sciatic neurectomy, tibial μCT; assay type: in vivo, mice
Method: Disuse osteoporosis was induced by right side sciatic neurectomy (SN). Mice were anaesthetized with oxygen and halothane and SN was achieved by resecting a 3-4 mm segment of the sciatic nerve posterior to the hip joint. On the 4th day after surgery mice were treated with either; control or NaQuinate for 5 days/week for 2 weeks. The tibias of both limbs were analysed by micro computerized tomography (μCT).

[6] = neurectomized limbs, treated 5 days/week for 2 weeks
[7] = normal (non-neurectomized) bone

Row | SMILES | inhibition of LPS-stimulated interleukin-6 release (in words) [1] | DNA synthesis (3H-Thymine incorporation) of MG63 cells [2] | cell toxicity [3] | percentage bone content (bone volume) in the trabecular compartment [4] | trabecular number, tibial trabecular compartment [4] | bone loss assessed by % bone volume [5, 6] | bone loss assessed by trabecular number [5, 6] | normal bone trabecular number [5, 7] | normal bone volume [5, 7]
1 | CC1=C(C/C=C(\C)C(=O)O)C(=O)c2ccccc2C1=O [KCAT-5C (XIV), (2E)-4-(1,4-dihydro-2-methyl-1,4-dioxonaphthalen-3-yl)-2-methylbut-2-enoic acid] | only active inhibiting Interleukin-6 from cultured MG63 osteoblast-like cells at very high concentrations (10^−5 M) |  |  |  |  |  |  |  | 
2 | CC1=C(C/C=C(\C)CCC(=O)O)C(=O)c2ccccc2C1=O [NaQuinate (VIII), (4E)-6-(1,4-dihydro-2-methyl-1,4-dioxonaphthalen-3-yl)-4-methylhex-4-enoic acid] |  | continue normal DNA synthesis under all concentrations tested | lack of cell toxicity | completely attenuated the bone loss | completely attenuated the bone loss | inhibits bone loss in neurectomized limbs | inhibits bone loss in neurectomized limbs | does not alter normal bone trabecular number | does not alter normal bone volume
3 | CC1=C(CCCCCCCC(=O)O)C(=O)c2ccccc2C1=O [XV, 8-(1,4-dihydro-2-methyl-1,4-dioxonaphthalen-3-yl)octanoic acid] | completely inactive |  |  |  |  |  |  |  | 
